Legend:
[1] = tested on: D. melanogaster; assay: Airborne toxicity petri dish assay, adult flies exposed to VOC vapours (FIG. 1A); format: in vivo, Drosophila melanogaster; settings: for LD50 (expected concentration at which 50% of the flies die): D. melanogaster adults, vapours from solution in paraffin oil, within an hour
From the text: In particular, adult flies 2 were exposed to compositions 4 comprising one or more of a selection of VOCs according to the invention or a comparative example, in a petri dish 6. The compositions 4 were loaded onto the lid 6a of the petri dish 6 and the flies were placed into the base 6b of the dish, which was then covered by a sheet of plastic mesh netting 8 to avoid direct contact of the flies 2 with the compositions 4, before replacing the lid 6a. The onset of paralysis/loss of locomotion control, ultimately resulting in death of the flies 2, was monitored over a period of 1 hour or until all flies 2 were dead, determined when fly wings were vertical (similar to the protocol described in Legal et al. 1992 and 1994).
Having established that the VOCs of the invention are toxic to Drosophila spp., and in particular, D. suzukii, upon exposure to the vapours from a 10% vol. solution, the inventors set out to determine the range of concentrations at which the pesticide VOCs of the invention are expected to be lethal to Drosphila spp. Two species were chosen: the pest D. suzukii and the common Drosophila model D. melanogaster. Two exemplary compounds were chosen: (E)-2-hexenal and methyl benzoate, both of which were shown in Example 1 to be highly toxic to D. suzukii. The experimental set up used was as described in relation to FIG. 1A.
FIGS. 3A and 3C show the proportion of dead flies as a function of time in minutes, when exposed to the vapours of (E)-2-hexenal (FIG. 3A) or methyl benzoate (FIG. 3C) from a 1%, 5%, 10%, or 20% solution in paraffin oil or from pure (E)-2-hexenal or methyl benzoate. […] The data is shown as averages±SEM based on 3 to 6 trials for each condition. […]

[2] = tested on: D. suzukii; assay: Positional and ovipositional preference on food substrate plated with compound; format: in vivo, Drosophila suzukii; settings: for positional preference/avoidance of adult flies: food plated with compound vs blank, monitored over 5 hours
Description: Adult flies 200 are placed in a plastic box 600 with mesh-netting 800 in the lid to allow aeration. Two food sources 400a and 400b (for example petri dishes containing molasses-apple juice agar substrates) are placed into the box 600, of which one 600a is plated with a compound to be tested, and the other 600b is left blank as a control.
Using this experimental set up and pure (E)-2-hexenal or methyl benzoate, the positional preference of the flies was monitored over 5 hours. The ovipositional preference was measured after 24 hours by counting the number of eggs laid on either plate. […] The same experimental set up was used to test for positional and ovipositional preference using different concentrations of (E)-2-hexenal, i.e. 1.2% vol, 3.4% vol, 11.6% vol and 34% vol. The results of these assays are shown on FIG. 7C. All data shown represents the mean+S.E.M. over 2 to 6 trials per condition. In FIG. 7C, deviations marked by a star are associated with a unpaired t-test p-value below 0.05 following a one-way ANOVA test with F(4,22)=3.987 (p=0.017).
Petri dishes (∅ 6 cm) filled with 10 ml of a molasses-apple juice-agar medium acted as food substrate. These were plated with methyl benzoate or (E)-2-hexenal. Two Petri dishes were placed inside a plastic box (32×22×12 cm) with a mesh netting in the lid. One dish was plated with a thin layer of pure odour (1.8 μl (E)-2-hexenal or 0.9 μl methyl benzoate when used pure, or 50 μl of (E)-2-hexenal when used in diluted solutions), and the other was left blank as a control. More (E)-2-hexenal was used because its vapour pressure is 4 times lower than that of methyl benzoate and, thus, is prone to dissipate faster. 20 mixed sex adult flies were placed inside the plastic box and monitored every 0.5 hours, over a period of 5 hours, to assess their positional preference by counting the number of flies positioned on either plate. After 24 hours, their ovipositional preference was monitored by counting the number of eggs laid on either dish. Flies were cooled on ice for handling and discarded after each trial.

[3] = tested on: D. suzukii larvae; assay: Fly larva chemotaxis assay; format: in vivo, Drosophila suzukii; settings: 1% vol in paraffin oil, 5 minutes
Description: Larvae were exposed to 1% vol solution of (E)-2-hexenal or methyl benzoate in paraffin oil loaded onto the lid of a petri dish. Their movement was tracked for 5 minutes. A preference index was quantified as the fraction of time larvae spent in a zone around the odour sources. A population of 15 larvae were used per trial and they were placed in the centre of the petri dish at the start of the experiment. The average distance of the larvae to the odour sources was also quantified over time. The results of this analysis are shown on FIG. 9, for each of the conditions where a VOC of the invention was used. A total of 10 trials were performed for each condition, i.e. for each VOC and fly species, and 30 trials were performed for a control condition, for which only the solvent paraffin oil was applied.
Behavioural experiments were performed with third instar foraging larvae. A group of approximately 15 larvae per trial was placed in a Petri dish and monitored during 5 minutes for their chemotactic behaviour, as larvae were exposed to an odour gradient in gas phase emanating from the two odour sources on the lid of the Petri dish. […] Larval behaviour was tracked using a video camera and the data derived was then analysed in Matlab (MathWorks) using custom-made programs to calculate additional time-series variables, and to determine the preference index and the distance of larvae to the source.

[4] = tested on: adult flies of D. suzukii; assay: Contact toxicity, adult flies sprayed in a bugdorm; format: in vivo, Drosophila suzukii; settings: for Proportion of dead flies (%): sprayed; for concentration inducing mortality by contact (as low as): sprayed adult D. suzukii
Description: Contact toxicity of E-2-hexenal and methyl benzoate volatiles was tested at different concentrations and in combination with thickeners in different concentration that make E-2-hexenal and methyl benzoate stick to the flies. […] Flies (10-15 mixed males/females) were placed into a bugdorm and sprayed from a distance of 10 cm. Mortality was evaluated after 24 hrs, except for the condition indicated with a star in Table 3, where an exposure time of 50 minutes was used. Thickeners were diluted in aqueous emulsions of deionised water containing 1% vol. Tween 20.

[5] = D. melanogaster, concentration 1% vol
[6] = D. melanogaster, concentration 5% vol
[7] = D. melanogaster, concentration 10% vol
[8] = D. melanogaster, concentration 20% vol
[9] = D. melanogaster, concentration 100% vol
[10] = 0.1% compound + 1% Arabic Gom, 24 hrs
[11] = 0.1% compound + 1% hydroxyethylcellulose, 24 hrs
[12] = 0.1% compound, mortality after 24 hrs
[13] = 1% compound + 1% Arabic Gom, 24 hrs
[14] = 1% compound + 1% hydroxyethylcellulose, 24 hrs
[15] = 5% compound, mortality after 24 hrs
[16] = *1% compound, exposure time of 50 minutes

SMILES: COC(=O)c1ccccc1 [methyl benzoate, Methyl benzoate]
- LD50 (expected concentration at which 50% of the flies die) [1]: 7.5 % vol
- T50 ([1]; D. melanogaster, 10% vol): 18.2 min
- T50 (time at which 50% of the flies were dead) [1, 5]: non lethal
- T50 (time at which 50% of the flies were dead) [1, 6]: non lethal
- T50 (time at which 50% of the flies were dead) [1, 7]: 18.2 min
- T50 (time at which 50% of the flies were dead) [1, 8]: 9.8 min
- T50 (time at which 50% of the flies were dead) [1, 9]: 9.1 min
- positional preference/avoidance of adult flies [2]: stronger avoidance response
- ovipositional preference (egg-laying) ([2]; food plated with pure compound vs blank, eggs counted after 24 hours): strong egg-laying deterrent
- larval chemotactic response [3]: strongly repulsive
- Proportion of dead flies (%) [4, 10]: 30%
- Proportion of dead flies (%) [4, 11]: 10%
- Proportion of dead flies (%) [4, 12]: 33%
- Proportion of dead flies (%) [4, 13]: 30%
- Proportion of dead flies (%) [4, 14]: 70%
- Proportion of dead flies (%) [4, 15]: 100%
- Proportion of dead flies (%) [4, 16]: 30%
- concentration inducing mortality by contact (as low as) [4]: 0.1%

SMILES: CCC/C=C/C=O [(E)-2-hexenal]
- LD50 (expected concentration at which 50% of the flies die) [1]: 13.8 % vol
- T50 (time at which 50% of the flies were dead) [1, 5]: not lethal
- T50 (time at which 50% of the flies were dead) [1, 6]: not lethal
- T50 (time at which 50% of the flies were dead) [1, 7]: not lethal
- T50 (time at which 50% of the flies were dead) [1, 8]: 6.5 min
- T50 (time at which 50% of the flies were dead) [1, 9]: 6.2 min
- positional preference/avoidance of adult flies [2]: relatively weak
- concentration from which flies avoid laying their eggs on the plated side ([2]; tested 1.2, 3.4, 11.6 and 34% vol, eggs counted after 24 hours): ≥ 3.4 % vol
- larval chemotactic response [3]: attractive chemotactic responses
- Proportion of dead flies (%) [4, 10]: 80%
- Proportion of dead flies (%) [4, 11]: 80%
- Proportion of dead flies (%) [4, 12]: 31%
- Proportion of dead flies (%) [4, 13]: 10%
- Proportion of dead flies (%) [4, 14]: 50%
- Proportion of dead flies (%) [4, 15]: 100%
- Proportion of dead flies (%) [4, 16]: 50%
- concentration inducing mortality by contact (as low as) [4]: 0.1%

Reference: patent US11779015B2, “Pesticide compositions” (FUNDACIÓ CENTRE DE REGULACIÓ GENÒMICA, priority 2017, dated 2023)
